Results taken from publication PMC10771590, “Pathway crosstalk between the central metabolic and heme biosynthetic pathways in Phanerochaete chrysosporium” (Applied Microbiology and Biotechnology, 2024).

Columns and labels:
[1] = test system: CS from rat kidney; design: method as in Matsuoka and Srere 1973; Lee et al. 1997; settings: ref Matsuoka and Srere 1973; Lee et al. 1997; cited from earlier work
[2] = test system: CS from Drosophila melanogaster; design: method as in Matsuoka and Srere 1973; Lee et al. 1997; settings: ref Matsuoka and Srere 1973; Lee et al. 1997; cited from earlier work
[3] = target: T1, recombinant PcGAPDH (rPcGAPDH) (Phanerodontia chrysosporium, UniProt Q01982); test: GAPDH assay and steady-state kinetic analysis; format: biochemical, Phanerochaete chrysosporium; settings: 1 μM inhibitor, 5-min incubation, 0.6 mM GAP3 (Fig. 2C)
T1 construct: 6xHis-tag (pET-30) (cleaved yes); made in house; host or cells: E. coli BL21(DE3)pLysS
Protocol: GAPDH assay was performed as previously described (Campanale et al. [2003]). For steady-state kinetic analysis, the reaction mixture (1 ml) contained 40 mM phosphate (pH 7.6), 5.2 μg recombinant PcGAPDH (rPcGAPDH), 40 mM triethanolamine, 5 mM NAD^+, and 0.6–2 mM glyceraldehyde 3-phosphate (GAP3). Reactions were monitored by the increase in absorbance at 340 nm (ε 6220 M^–1 cm^–1) for 1 min, and initial velocities were determined. Inhibitory experiments were done in the presence of 0–2.5 μM hemin. To examine the effect of hemin on GAPDH kinetics, PcGAPDH was incubated with either buffer (control) or hemin for 5 min prior to initiating the reaction. Kinetic parameters were determined from Lineweaver–Burk plots, and Ki values were determined from the secondary plot of each slope of the Lineweaver–Burk plots. Immediately prior to use, hemin was dissolved at 10 mM in 0.1 M NaOH and diluted with 40 mM Tris–HCl (pH 7.5).
Fig. 2 Heterologous expression of PcGAPDH and inhibitory effect of hemin on GAPDH reaction. A M, molecular weight marker; lane 1, rPcGAPDH-His-tag; lane 2, His-tag-cleaved rPcGAPDH. B Reaction mixtures containing 2.5 nM rPcGAPDH, 40 mM phosphate (pH 7.6), 40 mM triethanolamine, 5 mM NAD^+, and 0.6–2 mM GAP3. […] Inset: secondary plots of each slope of Lineweaver–Burk plots against the concentration of hemin for determining inhibition constants. C Reaction mixtures containing 2.5 nM rPcGAPDH, 40 mM phosphate (pH 7.6), 40 mM triethanolamine, 5 mM NAD^+, and 0.6 mM GAP3. Reactions were started by adding substrates followed by 5-min incubation with either buffer or 1 μM inhibitor (hemin or protoporphyrin IX, PPIX). […] All experiments were performed in triplicate. Bars indicated as mean values ± standard deviation (error bars)

[4] = target: T2, rPcCS (mitochondrial citrate synthase) (Phanerodontia chrysosporium, UniProt Q0EAA7); test: CS assay (DTNB method) and steady-state kinetic analysis; format: biochemical, Phanerochaete chrysosporium; settings: at a concentration more than 10 times the inhibitory concentration of hemin (data not shown)
T2 sequence (Q0EAA7 1-446): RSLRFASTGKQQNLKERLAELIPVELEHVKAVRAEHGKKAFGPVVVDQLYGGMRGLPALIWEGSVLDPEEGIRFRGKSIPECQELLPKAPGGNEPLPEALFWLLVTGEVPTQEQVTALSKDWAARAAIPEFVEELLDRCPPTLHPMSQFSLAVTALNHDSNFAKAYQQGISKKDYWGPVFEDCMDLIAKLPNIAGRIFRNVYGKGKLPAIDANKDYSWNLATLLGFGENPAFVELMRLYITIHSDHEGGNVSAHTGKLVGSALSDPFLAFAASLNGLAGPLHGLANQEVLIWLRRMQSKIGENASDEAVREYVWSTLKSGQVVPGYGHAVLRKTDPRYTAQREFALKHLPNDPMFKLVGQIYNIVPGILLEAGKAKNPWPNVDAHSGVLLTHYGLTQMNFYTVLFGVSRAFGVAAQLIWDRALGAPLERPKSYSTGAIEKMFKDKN
Protocol: CS was assayed by the 5, 5′-dithiobis-2-nitrobenzoic acid (DTNB) method, as described previously (Srere et al. [1963]). […] CS catalyzes the reaction of OAA with AcCoA, generating citrate and CoA. Thus, reactions were monitored by the amount of released CoA, which was followed at 412 nm (ε 13 600 M^–1cm^–1) by the formation of 2-nitro-5-mercaptobenzoic acid, via the reaction of CoA with DTNB. Reactions were monitored for 1 min, and initial velocity was determined. […] Inhibition studies were carried out in the presence of 0–2.5 μM hemin as described above. Kinetic parameters were determined from Lineweaver–Burk plots, and Ki values were determined from the secondary plot of the slopes of the Lineweaver–Burk plots. Hemin and OAA solutions were prepared immediately prior to use.
Fig. 5 Inhibitory effect of hemin on PcCS reaction. […] Reaction mixtures contained 1.5 nM rPcCS, 40 mM Tris-HCl (pH 8.5), and 120 μM DTNB. Fixed substrate was added at 12 μM and variable substrate at 3–12 μM. […] Insets: secondary plots of each slope of Lineweaver–Burk plots against the concentration of hemin for determining inhibition constants.

[5] = substrate: O=C(O)CC(=O)C(=O)O; test: purified protein, by the assay type; settings: other: rPcCS, substrate OAA; pH 8.5
[6] = substrate: CC(=O)SCCNC(=O)CCNC(=O)[C@H](O)C(C)(C)COP(=O)(O)OP(=O)(O)OC[C@H]1O[C@@H](n2cnc3c(N)ncnc32)[C@H](O)[C@@H]1OP(=O)(O)O; test: purified protein, by the assay type; settings: other: rPcCS, substrate AcCoA; pH 8.5

T1 sequence (Q01982 whole entry): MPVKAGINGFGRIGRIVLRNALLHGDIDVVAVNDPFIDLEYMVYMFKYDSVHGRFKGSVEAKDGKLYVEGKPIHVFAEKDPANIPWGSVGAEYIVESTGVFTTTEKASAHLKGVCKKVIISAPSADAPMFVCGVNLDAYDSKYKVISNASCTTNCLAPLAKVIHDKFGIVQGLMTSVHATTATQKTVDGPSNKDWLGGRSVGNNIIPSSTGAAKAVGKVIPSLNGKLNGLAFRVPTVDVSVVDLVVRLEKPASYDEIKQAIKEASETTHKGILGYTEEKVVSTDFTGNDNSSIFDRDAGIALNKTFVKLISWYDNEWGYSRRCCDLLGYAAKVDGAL

For `CC(C)(COP(=O)(O)OP(=O)(O)OC[C@H]1O[C@@H](n2cnc3c(N)ncnc32)[C@H](O)[C@@H]1OP(=O)(O)O)[C@@H](O)C(=O)NCCC(=O)NCCS` [CoA, coenzyme A], the mode of inhibition [1] is listed as “competitive inhibitors of AcCoA and as non-competitive inhibitors of OAA” and the mode of inhibition [2] is listed as “competitive inhibitors of AcCoA and as non-competitive inhibitors of OAA”.

In the case of `CCC(=O)SCCNC(=O)CCNC(=O)[C@H](O)C(C)(C)COP(=O)(O)OP(=O)(O)OC[C@H]1O[C@@H](n2cnc3c(N)ncnc32)[C@H](O)[C@@H]1OP(=O)(O)O` [propionyl-CoA], the mode of inhibition [1] is given as “competitive inhibitors of AcCoA and as non-competitive inhibitors of OAA” and the mode of inhibition [2] is given as “competitive inhibitors of AcCoA and as non-competitive inhibitors of OAA”.

In the case of `C=CC1=C(C)c2cc3[nH]c(cc4nc(cc5[nH]c(cc1n2)c(C)c5CCC(=O)O)C(CCC(=O)O)=C4C)c(C)c3C=C` [protoporphyrin IX], the “inhibition of PcGAPDH activity” value [3] is reported as “as effectively as by hemin” and the “inhibition of PcCS” value [4] is reported as “slightly inhibited”.

B1: rPcCS (mitochondrial citrate synthase) (Phanerodontia chrysosporium) (protein)
chain: T2 sequence (Q0EAA7 1-446)
In the case of B1, the Km [5] is reported as 6.2 µM, the Vmax [5] is reported as 31.4 nmol/min/mL and the Km [6] is reported as 4.2 µM. It also gave a Vmax [6] of 25.8 nmol/min/mL.
